Source: US9518018B2, “3-alkoxy, thioalkyl and amino-4-amino-6-(substituted)picolinates and their use as herbicides” (Dow AgroSciences LLC, priority 2011, dated 2016)

How the values were obtained:
Test in all cases: In-water applied herbicidal activity in transplanted paddy rice
Format in all cases: in vivo
[1] = system: CYPDI = Cyperus difformis L. (small-flower flatsedge)
Method: (§1) Weed seeds or nutlets of the desired test plant species were planted in puddled soil (mud) prepared by mixing a non-sterilized mineral soil (28 percent silt, 18 percent clay, and 54 percent sand, with a pH of about 7.3 to 7.8 and an organic matter content of about 1.0 percent) and water at a ratio of 100 kilograms (kg) of soil to 19 liters (L) of water. The prepared mud was dispensed in 250 mL aliquots into 480 mL non-perforated plastic pots with a surface area of 86.59 cm^2 leaving a headspace of 2.5 to 3 cm in each pot. Rice seeds were planted in Sun Gro MetroMix 306 planting mixture, which typically has a pH of 6.0 to 6.8 and an organic matter content of about 30 percent, in plastic plug trays. Seedlings at the second or third leaf stage of growth were transplanted into 650 mL of mud contained in 960 mL non-perforated plastic pots with a surface area of 86.59 cm^2 four days prior to herbicide application. The paddy was created by filling the 2.5 to 3 cm headspace of the pots with water. When required to ensure good germination and healthy plants, a fungicide treatment and/or other chemical or physical treatment was applied. The plants were grown for 4-14 d in a greenhouse with an approximate 14-h photoperiod which was maintained at about 29° C. during the day and 26° C. during the night. Nutrients were added as Osmocote (17:6:10, Nitrogen:Phosphorus:Potassium (N:P:K)+minor nutrients) at 2 grams (g) per cup. Water was added on a regular basis to maintain the paddy flood, and supplemental lighting was provided with overhead metal halide 1000-Watt lamps as necessary. The plants were employed for testing when they reached the second or third true leaf stage. Treatments consisted of compounds 45, 34, and 66. For technical grade compounds, a weighed amount, determined by the highest rate to be tested, was placed in an individual 120 mL glass vial and was dissolved in 20 mL of acetone to obtain concentrated stock solutions. […] The concentrated stock solutions obtained were diluted with 20 mL of an aqueous mixture containing 2.5% Agri-dex crop oil concentrate (v/v). Applications were made by injecting an appropriate amount of the stock solution into the aqueous layer of the paddy. Control plants were treated in the same manner with the solvent blank. All treated plant material received the same concentration of acetone and crop oil concentrate. The treated plants and control plants were placed in a greenhouse as described above and water was added as needed to maintain a paddy flood. After approximately 3 weeks, the condition of the test plants, compared with that of the untreated plants, was determined visually and scored on a scale of 0 to 100 percent where 0 corresponds to no injury and 100 corresponds to complete kill. By applying the well-accepted probit analysis as described by J. Berkson in Journal of the […], 48, 565 (1953) and by D. Finney in “Probit Analysis” Cambridge University Press (1952) or by plotting the mean data and fitting a logarithmic curve to the portion of the data where there was a dose response using Microsoft Excel®, the above data can be used to calculate GR50 and GR90 values, which are defined as growth reduction factors that correspond to the effective dose of herbicide required to kill or control 50 percent or 90 percent, respectively, of a target plant.

[2] = system: ECHCG = Echinochloa crus-galli (L.) P.BEAUV. (barnyardgrass)
Method: as §1

[3] = system: MOOVA = Monochoria vaginalis (BURM.f.) C.PRESL ex KUNTH (monochoria)
Method: as §1

[4] = system: ORYSA = Oryza sativa ‘M202’ (rice)
Method: as §1

[5] = system: ORYSA = Oryza sativa ‘Wells’ (rice)
Method: as §1

[6] = system: SCPJU = Scirpus juncoides ROXB. (Japanese bulrush)
Method: as §1

[7] = Table 7, dose to kill or control 50 percent, 21 days after application
[8] = Table 7, dose to kill or control 90 percent, 21 days after application

Q: With COc1c(C(=O)OCc2ccccc2)nc(-c2ccc(Cl)c(OC)c2F)c(F)c1N [Compound 66, benzyl 4-amino-6-(4-chloro-2-fluoro-3-methoxyphenyl)-5-fluoro-3-methoxypicolinate] as the compound, how does the “Mean Visual Injury (%)-21 Days After Application CYPDI” value ([1]; Table 7, 2.19 g ae/ha) read?
A: Its value is 0%.

Q: What about the “Mean Visual Injury (%)-21 Days After Application CYPDI” value ([1]; Table 7, 4.38 g ae/ha) of the same compound?
A: The value was 48%.

Q: And the “Mean Visual Injury (%)-21 Days After Application CYPDI” value ([1]; Table 7, 8.75 g ae/ha)?
A: The value was 94%.

Q: And the “Mean Visual Injury (%)-21 Days After Application CYPDI” value ([1]; Table 7, 17.5 g ae/ha)?
A: The value was 100%.

Q: And the “Mean Visual Injury (%)-21 Days After Application CYPDI” value ([1]; Table 7, 35 g ae/ha)?
A: The value was 100%.

Q: And the “Mean Visual Injury (%)-21 Days After Application CYPDI” value ([1]; Table 7, 70 g ae/ha)?
A: The value was 100%.

Q: What about the “Mean Visual Injury (%)-21 Days After Application CYPDI” value ([1]; Table 7, 140 g ae/ha) of the same compound?
A: The value was 100%.

Q: What about the “GR50 CYPDI” value [1, 7] of the same compound?
A: The value was 4.5 g ae/ha.

Q: And the “GR90 CYPDI” value [1, 8]?
A: The value was 8.2 g ae/ha.

Q: And the “Mean Visual Injury (%)-21 Days After Application ECHCG” value ([2]; Table 7, 2.19 g ae/ha)?
A: The value was 0%.

Q: What about the “Mean Visual Injury (%)-21 Days After Application ECHCG” value ([2]; Table 7, 4.38 g ae/ha) of the same compound?
A: The value was 3%.

Q: What about the “Mean Visual Injury (%)-21 Days After Application ECHCG” value ([2]; Table 7, 8.75 g ae/ha) of the same compound?
A: Its value is 6%.

Q: And the “Mean Visual Injury (%)-21 Days After Application ECHCG” value ([2]; Table 7, 17.5 g ae/ha)?
A: The value was 57%.

Q: And the “Mean Visual Injury (%)-21 Days After Application ECHCG” value ([2]; Table 7, 35 g ae/ha)?
A: The value was 86%.

Q: What about the “Mean Visual Injury (%)-21 Days After Application ECHCG” value ([2]; Table 7, 70 g ae/ha) of the same compound?
A: Its value is 99%.

Q: What about the “Mean Visual Injury (%)-21 Days After Application ECHCG” value ([2]; Table 7, 140 g ae/ha) of the same compound?
A: Its value is 100%.

Q: What about the “GR50 ECHCG” value [2, 7] of the same compound?
A: The value was 17.4 g ae/ha.

Q: What about the “GR90 ECHCG” value [2, 8] of the same compound?
A: Its value is 53.7 g ae/ha.

Q: What about the “Mean Visual Injury (%)-21 Days After Application MOOVA” value ([3]; Table 7, 2.19 g ae/ha) of the same compound?
A: Its value is 0%.

Q: And the “Mean Visual Injury (%)-21 Days After Application MOOVA” value ([3]; Table 7, 4.38 g ae/ha)?
A: The value was 100%.

Q: And the “Mean Visual Injury (%)-21 Days After Application MOOVA” value ([3]; Table 7, 8.75 g ae/ha)?
A: The value was 100%.

Q: What about the “Mean Visual Injury (%)-21 Days After Application MOOVA” value ([3]; Table 7, 17.5 g ae/ha) of the same compound?
A: The value was 100%.

Q: What about the “Mean Visual Injury (%)-21 Days After Application MOOVA” value ([3]; Table 7, 35 g ae/ha) of the same compound?
A: The value was 100%.

Q: And the “Mean Visual Injury (%)-21 Days After Application MOOVA” value ([3]; Table 7, 70 g ae/ha)?
A: The value was 100%.

Q: And the “Mean Visual Injury (%)-21 Days After Application MOOVA” value ([3]; Table 7, 140 g ae/ha)?
A: The value was 100%.

Q: And the “GR50 MOOVA” value [3, 7]?
A: Its value is less than 4.38 g ae/ha.

Q: And the “GR90 MOOVA” value [3, 8]?
A: The value was less than 4.38 g ae/ha.

Q: And the “Mean Visual Injury (%)-21 Days After Application ORYSA ‘M202’” value ([4]; Table 7, 2.19 g ae/ha)?
A: Its value is 0%.

Q: What about the “Mean Visual Injury (%)-21 Days After Application ORYSA ‘M202’” value ([4]; Table 7, 4.38 g ae/ha) of the same compound?
A: Its value is 0%.

Q: And the “Mean Visual Injury (%)-21 Days After Application ORYSA ‘M202’” value ([4]; Table 7, 8.75 g ae/ha)?
A: The value was 0%.

Q: What about the “Mean Visual Injury (%)-21 Days After Application ORYSA ‘M202’” value ([4]; Table 7, 17.5 g ae/ha) of the same compound?
A: The value was 0%.

Q: And the “Mean Visual Injury (%)-21 Days After Application ORYSA ‘M202’” value ([4]; Table 7, 35 g ae/ha)?
A: The value was 0%.

Q: And the “Mean Visual Injury (%)-21 Days After Application ORYSA ‘M202’” value ([4]; Table 7, 70 g ae/ha)?
A: The value was 0%.

Q: And the “Mean Visual Injury (%)-21 Days After Application ORYSA ‘M202’” value ([4]; Table 7, 140 g ae/ha)?
A: Its value is 17%.

Q: And the “GR50 ORYSA ‘M202’” value [4, 7]?
A: Its value is greater than 140 g ae/ha.

Q: And the “GR90 ORYSA ‘M202’” value [4, 8]?
A: The value was greater than 140 g ae/ha.

Q: And the “Mean Visual Injury (%)-21 Days After Application ORYSA ‘Wells’” value ([5]; Table 7, 8.75 g ae/ha)?
A: The value was 0%.

Q: And the “Mean Visual Injury (%)-21 Days After Application ORYSA ‘Wells’” value ([5]; Table 7, 17.5 g ae/ha)?
A: Its value is 0%.

Q: And the “Mean Visual Injury (%)-21 Days After Application ORYSA ‘Wells’” value ([5]; Table 7, 35 g ae/ha)?
A: The value was 0%.

Q: What about the “Mean Visual Injury (%)-21 Days After Application ORYSA ‘Wells’” value ([5]; Table 7, 70 g ae/ha) of the same compound?
A: The value was 0%.

Q: What about the “Mean Visual Injury (%)-21 Days After Application ORYSA ‘Wells’” value ([5]; Table 7, 140 g ae/ha) of the same compound?
A: The value was 5%.

Q: What about the “GR50 ORYSA ‘Wells’” value [5, 7] of the same compound?
A: Its value is greater than 140 g ae/ha.

Q: And the “GR90 ORYSA ‘Wells’” value [5, 8]?
A: Its value is greater than 140 g ae/ha.

Q: What about the “Mean Visual Injury (%)-21 Days After Application SCPJU” value ([6]; Table 7, 2.19 g ae/ha) of the same compound?
A: Its value is 35%.

Q: What about the “Mean Visual Injury (%)-21 Days After Application SCPJU” value ([6]; Table 7, 4.38 g ae/ha) of the same compound?
A: The value was 78%.

Q: What about the “Mean Visual Injury (%)-21 Days After Application SCPJU” value ([6]; Table 7, 8.75 g ae/ha) of the same compound?
A: Its value is 94%.

Q: What about the “Mean Visual Injury (%)-21 Days After Application SCPJU” value ([6]; Table 7, 17.5 g ae/ha) of the same compound?
A: The value was 98%.

Q: What about the “Mean Visual Injury (%)-21 Days After Application SCPJU” value ([6]; Table 7, 35 g ae/ha) of the same compound?
A: The value was 100%.

Q: And the “Mean Visual Injury (%)-21 Days After Application SCPJU” value ([6]; Table 7, 70 g ae/ha)?
A: Its value is 100%.

Q: What about the “Mean Visual Injury (%)-21 Days After Application SCPJU” value ([6]; Table 7, 140 g ae/ha) of the same compound?
A: The value was 100%.

Q: What about the “GR50 SCPJU” value [6, 7] of the same compound?
A: The value was 2.8 g ae/ha.

Q: And the “GR90 SCPJU” value [6, 8]?
A: The value was 7.1 g ae/ha.
